Where a name gives a salt, the structure may show the parent alone.

The target in the first data set is T1, human FSH receptor (Homo sapiens, UniProt P23945).
T1 construct: host or cells: CHO-K1 (CHO FSH-R 6CRE-Luc, 1D7 cells)
T1 sequence (P23945 18-695): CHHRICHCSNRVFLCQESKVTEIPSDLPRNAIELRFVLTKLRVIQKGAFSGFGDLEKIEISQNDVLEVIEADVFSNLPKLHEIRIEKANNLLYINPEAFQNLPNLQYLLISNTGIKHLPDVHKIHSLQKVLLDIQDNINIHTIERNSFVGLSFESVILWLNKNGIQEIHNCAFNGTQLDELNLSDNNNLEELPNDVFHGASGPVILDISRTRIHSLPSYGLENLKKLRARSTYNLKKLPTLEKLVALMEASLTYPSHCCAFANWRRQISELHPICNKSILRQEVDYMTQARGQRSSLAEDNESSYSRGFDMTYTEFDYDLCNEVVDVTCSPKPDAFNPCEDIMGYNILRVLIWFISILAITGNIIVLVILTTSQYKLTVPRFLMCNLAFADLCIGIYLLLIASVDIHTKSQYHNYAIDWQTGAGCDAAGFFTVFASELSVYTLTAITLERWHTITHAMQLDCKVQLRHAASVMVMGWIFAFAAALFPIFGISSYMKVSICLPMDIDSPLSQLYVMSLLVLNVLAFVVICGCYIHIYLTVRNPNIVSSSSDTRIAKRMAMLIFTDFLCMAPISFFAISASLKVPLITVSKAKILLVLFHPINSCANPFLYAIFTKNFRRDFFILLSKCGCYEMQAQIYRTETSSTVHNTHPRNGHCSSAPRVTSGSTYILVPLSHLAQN
Put plainly: FSH receptor-dependent CRE-luciferase reporter gene assay (CHO FSH-R 6CRE-Luc cells). The conditions noted are these: dose-response format in presence of EC50 of purified human FSH; * n=3, ** n=2 averages. The format is cell-based. The source says:
FOLLICLE-STIMULATING HORMONE RECEPTOR-DEPENDENT CRE-LUCIFERASE REPORTER GENE ASSAY FOR THE IDENTIFICATION OF FOLLICLE-STIMULATING HORMONE (FSH) ANTAGONISTS
A Chinese hamster ovarian cell line that stably produces the human FSH receptor and a luciferase reporter gene regulated by cAMP response elements was used to identify and determine the relative potencies of human FSH receptor antagonists. See for example, Kelton, C. A., et al. Mol. Cell. Endocrinol. 89:141-151 (1992), Tilly, J. L., et al. Endocrinology 131:799-806(1992), and George, S. E., et al. J. Biomol. Screening 2:235-240 (1997).
Compound Vehicle: Stock compounds were solubilized in an appropriate vehicle, e.g., phosphate buffered saline (PBS) or dimethyl sulfoxide (DMSO), at 30 mM. The compounds subsequently were diluted in DMSO to working dilutions of 1 and 20 or 30 mM for 2-dose testing format and 1 μM-10 mM for dose-response format. The DMSO dilutions were diluted 500-fold in sterile growth medium [D-MEM/F-12 (GIBCO/BRL; Grand Island, N.Y.) containing 15 mM HEPES, 2 mM l-glutamine, pyridoxine hydrochloride, phenol red and 5% FETALCLONE® II (HyClone Laboratories, Inc; Logan, Utah), 0.2% DMSO, 100 units penicillin G/ml, and 100 μg streptomycin sulfate/ml (GIBCO/BRL)]. The concentration of the vehicle in each of the compound dilutions was the same.
Positive Controls: Purified human FSH (>98%) was purchased from Cortex Biochem, Inc. (San Leandro, Calif.) and 3-[(2S*,5R*)-5-{[2-(1H-Indol-3-yl)-ethylcarbamoyl]-methyl}-4-oxo-2-(5-phenylethynyl-thiophen-2-yl)-thiazolidin-3-yl]-benzamide (an FSH-R thiazolidinone antagonist) was prepared by processes described by R. A. Scheuerman et al. in U.S. Pat. No. 6,426,357 (Affymax).
The CHO FSH-R 6CRE-Luc cells (1D7 cells) were obtained from Affymax (Palo Alto, Calif.). These Chinese hamster ovary cells (CHO-K1) were engineered genetically to stably express the recombinant human FSH receptor gene and a luciferase reporter gene under the regulation of 6 copies of a cAMP response element. The cells were plated one day prior to treatment into 96-well white opaque plates at a density of 50,000 cells/100 μl/well in growth medium. On the day of treatment, the growth medium was removed from the wells by aspiration and 50 μl of fresh growth medium was added to each well. The cells were incubated at 37° C. in a humidified incubator with 5% CO2/95% air.
The treated cells were incubated for 4 hours at 37° C. in a humidified incubator with 5% CO2/95% air. At the end of the incubation period, luciferase activity was measured by chemiluminescence using a commercially available kit (LucScreen, Tropix, Inc., Bedford, Mass.) according to the manufacturer's specifications, except that Buffer 1 and Buffer 2 were mixed together in equal proportion prior to the addition of 100 μl of the combined reagents to each well. Chemiluminescence was detected using a luminometer (EG & G Berthold Microlumat LB 96 P, Wallac, Gaithersburg, Md.) with chemiluminescence measured for 1 sec/well. Background luminescence was measured for each well prior to the addition of the LucScreen reagent.
In the 96-well 2-dose format, each compound was tested in duplicate at each dose. […] One plate was used to test a maximum of 22 compounds.
The EC50 of purified human FSH alone was tested in triplicate with each test compound. The doses chosen to test each compound were extrapolated from the initial 2-dose screening process. Along with the test compounds, purified human FSH also was tested in a dose response (0.03, 0.1, 0.3, 1, 3, 10, and 30 ng/ml) for a positive control and quality control. One plate was used for 3 test compounds and the FSH positive control.
Luciferase activity is expressed as relative light units/sec/well. Luciferase activity in antagonist was compared to the appropriate negative and positive controls. For 2-dose testing, results are reported as luciferase activity and are expressed as percent inhibition of the response obtained from the EC50 of FSH.
In general terms: In a reporter assay the amount or activity of a reporter protein is the signal.
With `O=C(NCc1cccnc1)c1ccc2n1Cc1ccccc1N(C(=O)c1ccc(NCCc3ccccc3)nc1)C2` [Example 126], the IC50 – broadly, the concentration that inhibits the measured activity by half – worked out at 18.7 µM.

`Cc1ccc(C(=O)N2Cc3ccc(C(=O)NCc4cccnc4)n3Cc3ccccc32)cc1` [Example 77]: the IC50 worked out at 18.8 µM.

For the compound `CC(=O)c1ccc(-c2ccc(C(=O)N3Cc4ccc(C(=O)NCc5cccnc5)n4Cc4ccccc43)cc2C)cc1` [Example 26], the 50% inhibitory concentration (IC50) is > 30 µM.

Turning to `O=C(O)Cc1ccccc1-c1ccc(C(=O)N2Cc3ccc(C(=O)NCc4cccnc4)n3Cc3ccccc32)cc1` [Example 35, (4′-{[3-{[(PYRIDIN-3-YLMETHYL)AMINO]CARBONYL}-5H-PYRROLO[2,1-C][1,4]BENZODIAZEPIN-10(11H)-YL]CARBONYL}-1,1′-BIPHENYL-2-YL)ACETIC ACID], the IC50 came to 31 µM.

With `CCCCNc1ccc(C(=O)N2Cc3ccc(C(=O)NCc4cccnc4)n3Cc3ccccc32)cn1` [Example 133], the IC50 was determined as 14.5 µM.

For `O=C(NCc1cccnc1)c1ccc2n1Cc1ccccc1N(C(=O)c1ccc(Oc3ccccc3)cc1)C2` [Example 101], the IC50 is 12 µM.

`Cc1cccc(C)c1-c1ccc(C(=O)N2Cc3ccc(C(=O)NCc4cccnc4)n3Cc3ccccc32)cc1` [Example 12]: the IC50 worked out at 16.4 µM.

For the compound `COc1ccc(C(=O)N2Cc3ccc(C(=O)NCc4cccnc4)n3Cc3ccccc32)cc1` [Example 89], the concentration for half-maximal inhibition (IC50) is 12.2 µM.

As for `O=C(NCc1cccnc1)c1ccc2n1Cc1ccccc1N(C(=O)c1ccc3ccccc3c1)C2` [Example 146], the IC50 turned out to be 11.3 µM.

`O=C(NCc1cccnc1)c1ccc2n1Cc1ccccc1N(C(=O)c1cc(Cl)sc1Cl)C2` [Example 118]: the concentration for half-maximal inhibition (IC50) was found to be 27.7 µM.

For the compound `COc1ccccc1CNc1ccc(C(=O)N2Cc3ccc(C(=O)NCc4cccnc4)n3Cc3ccccc32)cn1` [Example 120], the IC50 turned out to be 49.6 µM.

In the case of `Cc1ccccc1-c1cccc(C(=O)N2Cc3ccc(C(=O)NCc4cccnc4)n3Cc3ccccc32)c1` [Example 27], the IC50 was 22.7 µM.

`O=C(NCc1cccnc1)c1ccc2n1Cc1ccccc1N(C(=O)c1ccc(NCc3cccnc3)nc1)C2` [Example 131]: the IC50 worked out at 15.8 µM.

Consider `O=C(NCc1cccnc1)c1ccc2n1Cc1ccccc1N(C(=O)c1ccccn1)C2` [Example 116], for which the IC50 was > 30 µM.

For the compound `Cc1cccc(C(=O)N2Cc3ccc(C(=O)NCc4cccnc4)n3Cc3ccccc32)c1` [Example 83], the half-inhibitory concentration (IC50) was 16.6 µM.

For the compound `O=C(NCc1cccnc1)c1ccc2n1Cc1ccccc1N(C(=O)c1ccc(C(F)(F)F)cc1)C2` [Example 79], the half-inhibitory concentration (IC50) stood at 17.8 µM.

For the compound `COc1ccccc1-c1ccc(C(=O)N2Cc3ccc(C(=O)NCC(c4cccnc4)N4CCCC4)n3Cc3ccccc32)cc1` (stereo not drawn) [Example 9, 10-[(2′-METHOXY-1,1′-BIPHENYL-4-YL)CARBONYL]-N-(2-PYRIDIN-3-YL-2-PYRROLIDIN-1-YLETHYL)-10,11-DIHYDRO-5H-PYRROLO[2,1-C][1,4]BENZODIAZEPINE-3-CARBOXAMIDE], the IC50 turned out to be 17 µM.

Regarding `Cc1ccc(-c2ccc(C(=O)N3Cc4ccc(C(=O)NCc5cccnc5)n4Cc4ccccc43)cc2C)cc1` [Example 22], the IC50 is 15 µM.

In the case of `NS(=O)(=O)c1cc(C(=O)N2Cc3ccc(C(=O)NCc4cccnc4)n3Cc3ccccc32)ccc1N1CCOCC1` [Example 114, 10-[3-(AMINOSULFONYL)-4-MORPHOLIN-4-YLBENZOYL]-N-(PYRIDIN-3-YLMETHYL)-10,11-DIHYDRO-5H-PYRROLO[2,1-C][1,4]BENZODIAZEPINE-3-CARBOXAMIDE HEMIHYDRATE], the half-inhibitory concentration (IC50) was > 30 µM.

For `CCN(CC)C(=O)Cc1ccccc1-c1ccc(C(=O)N2Cc3ccc(C(=O)NCc4cccnc4)n3Cc3ccccc32)cc1` [Example 67], the concentration for half-maximal inhibition (IC50) was 29.1 µM.

Take `O=C(NCc1cccnc1)c1ccc2n1Cc1ccccc1N(C(=O)c1cccc(C(F)(F)F)c1)C2` [Example 92]: the IC50 was 9.9 µM.

In the case of `O=C(NCc1cccnc1)c1ccc2n1Cc1ccccc1N(C(=O)c1ccc(F)c(F)c1)C2` [Example 100], the IC50 amounted to 31.5 µM.

Test system in the next data set: not given
Experiment: not given
Details: not given
`Cc1ncc(CNC(=O)c2ccc3n2Cc2ccccc2N(C(=O)CSc2ccc(Br)cc2)C3)c(CO)c1O`: the melting point (as a rule, the temperature, or range, at which the solid turns liquid) lay in the range of 199 to 200 °C.

`Cc1cccc(C)c1-c1ccc(C(=O)N2Cc3ccc(C(=O)NCc4cccnc4)n3Cc3ccccc32)cc1` [Example 12]: the melting point was 216 to 218 °C (dec.).

On to `COc1ccc(C(=O)N2Cc3ccc(C(=O)NCc4cccnc4)n3Cc3ccccc32)cc1` [Example 89], for which the melting point was 110 to 112 °C.

Turning to `CSc1ccccc1-c1ccc(C(=O)N2Cc3ccc(C(=O)NCc4cccnc4)n3Cc3ccccc32)cc1` (hydrate or solvate) [Example 14, 10-{[2′-(METHYLTHIO)-1,1′-BIPHENYL-4-YL]CARBONYL}-N-(PYRIDIN-3-YLMETHYL)-10,11-DIHYDRO-5H-PYRROLO[2,1-C][1,4]BENZODIAZEPINE-3-CARBOXAMIDE 0.67 HYDRATE], the melting point was in the range of 172 to 175 °C.

`COc1cc(C(=O)N2Cc3ccc(C(=O)NCc4c(CO)cnc(C)c4O)n3Cc3ccccc32)ccc1-c1ccccc1C` (as salt: hydrochloride) (hydrate or solvate) came in with a melting point of 179 °C.

As to `NS(=O)(=O)c1cc(C(=O)N2Cc3ccc(C(=O)NCc4cccnc4)n3Cc3ccccc32)ccc1N1CCOCC1` (hydrate or solvate) [Example 114, 10-[3-(AMINOSULFONYL)-4-MORPHOLIN-4-YLBENZOYL]-N-(PYRIDIN-3-YLMETHYL)-10,11-DIHYDRO-5H-PYRROLO[2,1-C][1,4]BENZODIAZEPINE-3-CARBOXAMIDE HEMIHYDRATE], the melting point was in the range of 159 to 161 °C.

Take `O=C(NCc1cccnc1)c1ccc2n1Cc1ccccc1N(C(=O)CSc1ccc(Br)cc1)C2` (as salt: hydrochloride) (hydrate or solvate) [Example 141]: the melting point lay within 136 to 137 °C.

As for `O=C(NCc1cccnc1)c1ccc2n1Cc1ccccc1N(C(=O)c1ccccc1)C2` [Example 76], the melting point worked out at 197 °C.

Turning to `O=C(NCc1cccnc1)c1ccc2n1Cc1ccccc1N(C(=O)c1ccc3c(c1)Cc1ccccc1-3)C2` [Example 147], the melting point is 116 to 119 °C.

As for `CN(C)C(=O)c1ccccc1-c1ccc(C(=O)N2Cc3ccc(C(=O)NCc4cccnc4)n3Cc3ccccc32)cc1`, the melting point fell in the range of 206 to 207 °C.

For `O=C(NCc1cccnc1)c1ccc2n1Cc1ccccc1N(C(=O)c1ccc3c(c1)OCO3)C2` [Example 96], the melting point lay in the range of 169 to 171 °C.

The record behind these values is US7678787B2, “Pyrrolobenzodiazepine pyridine carboxamides and derivatives as follicle-stimulating hormone receptor antagonists” (Wyeth, priority 2005, dated 2010).
